In patent publication US20210186915A1, “PHARMACEUTICAL COMPOSITIONS HAVING HIGH DRUG LOADINGS OF MEDIUM CHAIN TRIGLYCERIDES AND METHODS RELATED THERETO” (Cerecin Inc., priority 2018, published 2021):

What was measured:
[1] = Visual dissolution study in SLS/water solution (scintillation vials); type: physicochemical; settings: 250 mg oil in 10 ml 0.25% or 0.5% SLS in water, stirred 20 minutes
Protocol: Visual dissolution studies were conducted at small scale using 20 ml scintillation vials on LMP formulations 1 through 3. The test was conducted at 37° C., 25° C. and 5° C. using a 0.25% Sodium Laurel Sulfate (SLS) in water solution. A heated aluminum block and heated stir plate were used in the study. 500 mg (250 mgA, 25 mgA/mL) of each LMP formulation was added to 10 mL pre-heated 0.25% SLS solution. The samples were stirred using a Teflon stir bar on a heated stir plate to maintain temperature for 20 minutes. After 20 minutes, the LMP suspensions were allowed to settle and were assessed visually.
Finally the test was repeated using only LMP-1 and a 0.5% SLS/water solution to access if additional surfactant would help with the apparent dissolution by increasing the solubility of the oil in water.
An oil dissolution control test was conducted to determine how the caprylic triglyceride (Miglyol 808) oil dissolves into an SLS/water solution. Two SLS stock solutions were made at 0.25% and 0.5% SLS in water. 10 ml of each SLS solution was added to a scintillation vial along with a magnetic stir bar. 250 mg of caprylic triglyceride (Miglyol 808) oil was added to each vial and stirred for 20 minutes. Images were taken after 10 minutes and two days. […] The vial does appear slightly hazy in the 10 minute photo indicating some oil is likely emulsified in the water phase. […]

[2] = USP Type II sink dissolution, 2.0 wt % SLS in pH 6.8 buffer; type: physicochemical; settings: for % LC Release, 10μ filtered: 500 mgA in 900 mL, 37° C.
Protocol: LMPs 1, 2, and 3 were tested in a USP Type II sink dissolution experiment along with caprylic triglyceride (Miglyol 808) oil. 500 mgA of formulation was dosed into a 1000 mL vessel containing 900 mL of 2.0wt % SLS in pH 6.8 buffer. Samples were taken at 30 minutes and 17.5 hours.
LMP-5, 7, 9, and 11 formulations were tested in a USP Type II sink dissolution experiment sink performance test using methods outlined described in EXAMPLE 3 (Tables 3-A, 3-B). […] The release rate trends as expected, in that adding more carnauba wax to the LMP matrix slows the dissolution. This is because carnauba wax is more hydrophobic than Compritol 888. […] Adding a pore former to the base LMP-11 formulation may allow for increased dissolution performance by enhancing water permeability while maintaining the desirable physical and handling attributes.
Formulations BREC1690-155, 156, 160, 161, and 162 were tested in a sink dissolution performance test using methods outlined herein at EXAMPLE 3 (Tables 3-A and 3-B). The dissolution rate was increased by the addition of a water soluble component (PVP 17PF, PVP-VA 64 or poloxamer P407). Dissolution was tested on formulations BREC1690-155, 156, 160, 161, and 162. Comparisons of previous Compritol based LMPs (LMP-2 and LMP-5) and BREC1690- 155, 156, and 162 with a dissolution enhancer are shown in FIG. 22.

% LC Release, centrifuged ([2]; 30 minutes): 31.6% ± 2%
% LC Release, 10μ filtered ([2]; 30 minutes): 64% (n = 1) % LC
% LC Release, 0.2μ filtered ([2]; 17.5 hours): 87% ± 7%
% LC Release, centrifuged ([2]; 17.5 hours): 27.3% ± 0.6%
% LC Release, 10μ filtered ([2]; 17.5 hours): 46.5% ± 0.5%
Substance: caprylic triglyceride [Miglyol 808]
oil dissolution control, visual [1]: majority of the oil floats on top of the water rather than going into solution
